# Assay results reported in patent publication US4735953A, “Pharmaceutical preparation for learning stimulation and memory improvement” (priority 1986, dated 1988).
# How the values were obtained:
# patients = assay: Clinical study on patients with memory disorders, compared to pyracetam; assay type: in vivo, human
# Text: The preparation according to the present invention was studied in clinics on 130 patients.
# As regards diagnosis and sex the patients were distributed as follows:
# skull-brain traumata with memory disturbance: 75 patients (52 men and 23 women)
# Alzheimer's disease: 15 patients (3 men and 12 women)
# Pick's disease: 5 patients (5 men)
# Senile dementia: 15 patients (4 men and 11 women)
# Vascular dementia (cerabral atero-sclerosis, hypertonic disease): 20 patients (7 men and 13 women)
# In the group of patients with skull-brain trauma the patient's age varied from 17 to 60 years, in the other patients--from 52 to 75 years.
# In addition to clinico-psychopathological methods of investigation, all the patients were subjected to neuropsychological studies during which specific tasks were offered them to solve. In doing so, the response was assessed against a 4-points scale: 3--maximally pronounced disorder, full or substantially full incapability to deal with the task set; 2--a medium degree of manifestation of the deficiency, solving the task with the experimentator's assistance; 1--minor errors, independent correction of mistakes; 0--lack of disturbances.
# The treatment course duration is 30-60 days. In the case of an acute skull-brain trauma (65 patients) the treatment started 15-20 days after the moment of trauma and lasted for 20-30 days.
# It is known that the function of memory has a complex brain organization and different zones of brains take part in its regulation. During the studies a multi-faceted assessment of the memory function was carried out; there were assessed: (1) mnestic component of the environmental orientation of a patient; (2) involuntary memory for current events; (3) intentional exo-experimental memory; (4) volume and soundness of audio-speaking memory; (5) volume and soundness of visual memory; (6) operative memory; (7) memory for knowledge acquired before the disease.
# [1] = system: rabbit's brain hemispheres; assay: Amplitude of induced potential in brain hemispheres (acoustic irritation); assay type: in vivo; conditions: rabbits
# Method: (§1) In the third series of experiments the effect of the preparation according to the present invention on the functional brain asymmetry was studied. The experiments were carried out on rabbits with electrodes implanted in the brain. The electrodes under nembutal narcosis (40 mg/kg) were implanted strictly symmetrically into the bearing zone of the temporal cortex of the right and left hemispheres on its lateral surface, whereas the indifferent electrode was secured to the nasal bones of a rabbit's skull. The acoustic irritation was applied through earphones. As the acoustic irritation a sound click caused by a square-shaped pulse from an electronic stimulator with a frequency of 0.1-0.2 Hz was used; the click intensity was adjusted within the range of from 5 to 80 Db. The amplification of the taken-off biopotentials was effected on an electroencephalograph; the induced potentials were obtained by means of an analyzer. 100 experiments on 20 animals were thus conducted; the interval between experiments on one animal was 7 days. The amplitude and form of the induced potential were determined. The asymmetry factor (Kas) was calculated by the formula: [formula] Ar --amplitude of the induced potential of the […] hemisphere, μV;
# (§2) A1 --amplitude of the induced potential of the left hemisphere.
# (§3) The test preparations were administered hypodermally in the form of 0.5-1.5% aqueous solutions 20 minutes before the beginning of the measurements.
# [2] = system: learning ability of rats preliminarily sorted out for poor learning ability; assay: Active avoidance learning in a shuttle chamber, rats sorted out for poor learning ability; assay type: in vivo, rat; conditions: poorly learning rats, hypodermally 100 mg/kg
# Text: (§4) In these experiments rats are taught to avoid an electric shock by escaping into a next chamber communicating with the first chamber by means of a special opening--a door. An electric current is applied to the chamber door consisting of metal plates. A conditional irritator is a light signal together with a sound click. The learning series consisted of 50 combinations. The number of combinations necessary for the animal's learning to escape into another chamber in response to the conditional signal was determined. Five correct responses out of 6 where regarded as the proof of stability of the acquired knowledge and were denoted as a "learning criterion". After 7 days the educational procedure was repeated, and again the number of combinations necessary to acquire the "learning criterion" was determined. In the case of difference between the first and second readings the percentage of retention of the acquired knowledge was calculated.
# (§5) In this experiment the effect of the preparation according to the present invention and prior art preparations was separately evaluated for the purpose of comparison on well-learning and on specially selected poorly learning rats. […] To the poorly learning rats the animals were assigned which reached no "learning criterion" in the teaching series of 50 combinations, or, in other words, a stable knowledge of active avoidance was not worked out in them. […] The preparation according to the present invention and the prior art comparison preparations were administered before the first teaching series or thereafter.
# (§6) Also studied were the effects produced upon a single and repeated administration of the preparation according to the present invention for 14 days.
# [3] = system: learning ability of rats in a shuttle chamber; assay: Active avoidance learning in a shuttle chamber, rats; assay type: in vivo, rat; conditions: rats, hypodermally 100 mg/kg
# Text: as §4, §5, §6
# [4] = system: cerebral cortex of rabbits; assay: Asymmetry factor by induced potential in the hearing zone of the cerebral cortex; assay type: in vivo, rabbit
# Method: as §1, §2, §3
# [5] = system: learning ability of mice in a shuttle chamber; assay: Learning ability of mice in a shuttle chamber; assay type: in vivo, mouse; conditions: mice
# [6] = hypodermally 10 mg/kg, 12 day (retention)
# [7] = hypodermally 30 mg/kg, 12 day (retention)
# [8] = hypodermally 100 mg/kg, 1st day
# [9] = hypodermally 100 mg/kg, 12 day (retention)
# [10] = per os 30 mg/kg, 12 day (retention)
# [11] = per os 100 mg/kg, 12 day (retention)
structure (smiles),measurement,setting,value
"NC(=O)CN1CCCC1=O [Pyracetam, pyracetam]",effect on the functional symmetry of the brain and activity of the dominating hemisphere,patients; experimental and clinical studies,no such effect
same,character of recovery (in words),patients; patients,uniform regression of all available disorders
same,amplitude of induced potentials (in words),[1],failed to influence all these characteristics
same,% of knowledge retention,[2],26%
same,"Number of combinations till appearance of ""learning criterion"", I teaching",[2],30.3 ± 2.5
same,"Number of combinations till appearance of ""learning criterion"", II-checking of retention of knowledge",[2],22.4 ± 2.1
same,Number of untaught animals in the group,[2],9/20
same,"Number of combinations to reach the ""learning criterion"" in II teaching series (after 7 days)",[3],4.7 ± 0.9
same,"Number of combinations to reach the ""learning criterion"" in the I teaching series",[3],20.8 ± 1.2
same,Number of non-taught animals in the group,[3],1/20
same,Percentage knowledge retention,[3],70%
same,asymmetry factor (in words),[4],failed to influence all these characteristics
same,"Asymmetry factor, Preparation","[4]; hypodermally 100 mg/kg, control 0.19 ± 0.03",0.213 ± 0.05
same,learning and memory (in words),[5]; hypodermally,"improves learning, but not memory"
same,"% of avoidance reactions, group I","[5]; hypodermally 10 mg/kg, 1st day",23%
same,"% of avoidance reactions, group II","[5]; hypodermally 10 mg/kg, 1st day",33%
same,"% of avoidance reactions, group III","[5]; hypodermally 10 mg/kg, 1st day",48%
same,"% of avoidance reactions, group IV","[5]; hypodermally 10 mg/kg, 1st day",52%
same,"% of avoidance reactions, group V","[5]; hypodermally 10 mg/kg, 1st day",60%
same,"% of avoidance reactions, group VI","[5]; hypodermally 10 mg/kg, 1st day",61%
same,"% of avoidance reactions, group I",[5]; [6],60%
same,"% of avoidance reactions, group II",[5]; [6],78%
same,"% of avoidance reactions, group III",[5]; [6],80%
same,"% of avoidance reactions, group IV",[5]; [6],79%
same,"% of avoidance reactions, group V",[5]; [6],80%
same,"% of avoidance reactions, group VI",[5]; [6],78%
same,"% of avoidance reactions, group I","[5]; hypodermally 30 mg/kg, 1st day",20%
same,"% of avoidance reactions, group II","[5]; hypodermally 30 mg/kg, 1st day",32%
same,"% of avoidance reactions, group III","[5]; hypodermally 30 mg/kg, 1st day",55%
same,"% of avoidance reactions, group IV","[5]; hypodermally 30 mg/kg, 1st day",67%
same,"% of avoidance reactions, group V","[5]; hypodermally 30 mg/kg, 1st day",70%
same,"% of avoidance reactions, group VI","[5]; hypodermally 30 mg/kg, 1st day",75%
same,"% of avoidance reactions, group I",[5]; [7],60%
same,"% of avoidance reactions, group II",[5]; [7],80%
same,"% of avoidance reactions, group III",[5]; [7],82%
same,"% of avoidance reactions, group IV",[5]; [7],81%
same,"% of avoidance reactions, group V",[5]; [7],84%
same,"% of avoidance reactions, group VI",[5]; [7],88%
same,"% of avoidance reactions, group I",[5]; [8],24%
same,"% of avoidance reactions, group II",[5]; [8],41%
same,"% of avoidance reactions, group III",[5]; [8],55%
same,"% of avoidance reactions, group IV",[5]; [8],70%
same,"% of avoidance reactions, group V",[5]; [8],72%
same,"% of avoidance reactions, group VI",[5]; [8],74%
same,"% of avoidance reactions, group I",[5]; [9],62%
same,"% of avoidance reactions, group II",[5]; [9],90%
same,"% of avoidance reactions, group III",[5]; [9],92%
same,"% of avoidance reactions, group IV",[5]; [9],90%
same,"% of avoidance reactions, group V",[5]; [9],90%
same,"% of avoidance reactions, group VI",[5]; [9],92%
same,effect upon per os administration (in words),[5]; per os,the effect is noticeably reduced
same,"% of avoidance reactions, group I","[5]; per os 30 mg/kg, 1st day",11%
same,"% of avoidance reactions, group II","[5]; per os 30 mg/kg, 1st day",17%
same,"% of avoidance reactions, group III","[5]; per os 30 mg/kg, 1st day",31%
same,"% of avoidance reactions, group IV","[5]; per os 30 mg/kg, 1st day",32%
same,"% of avoidance reactions, group V","[5]; per os 30 mg/kg, 1st day",33%
same,"% of avoidance reactions, group VI","[5]; per os 30 mg/kg, 1st day",40%
same,"% of avoidance reactions, group I",[5]; [10],48%
same,"% of avoidance reactions, group II",[5]; [10],70%
same,"% of avoidance reactions, group III",[5]; [10],71%
same,"% of avoidance reactions, group IV",[5]; [10],78%
same,"% of avoidance reactions, group V",[5]; [10],78%
same,"% of avoidance reactions, group VI",[5]; [10],81%
same,"% of avoidance reactions, group I","[5]; per os 100 mg/kg, 1st day",21%
same,"% of avoidance reactions, group II","[5]; per os 100 mg/kg, 1st day",22%
same,"% of avoidance reactions, group III","[5]; per os 100 mg/kg, 1st day",32%
same,"% of avoidance reactions, group IV","[5]; per os 100 mg/kg, 1st day",42%
same,"% of avoidance reactions, group V","[5]; per os 100 mg/kg, 1st day",43%
same,"% of avoidance reactions, group VI","[5]; per os 100 mg/kg, 1st day",52%
same,"% of avoidance reactions, group I",[5]; [11],69%
same,"% of avoidance reactions, group II",[5]; [11],80%
same,"% of avoidance reactions, group III",[5]; [11],82%
same,"% of avoidance reactions, group IV",[5]; [11],79%
same,"% of avoidance reactions, group V",[5]; [11],78%
same,"% of avoidance reactions, group VI",[5]; [11],78%
